Test results: patent US20050215604A1, “Combination therapies with epothilones and carboplatin” (Kosan Biosciences, Inc., priority 2004, published 2005)

How the values were obtained:
[1] = system: human NSCLC cell lines A549, H23, H226, H358, H460, and H522; assay: MTS cell viability assay across the NSCLC panel, single agents and constant-ratio combination; type: cell-based; conditions: single agent, 1 pM to 10 μM, 3 days; carboplatin judged at 10,000 nM
Procedure: (§1) The human NSCLC (non-small cell lung cancer) cell lines A549, H23, H226, H358, H460, and H522 were seeded in 96 well plates (5000 cells/well); after overnight incubation, the cells were treated with epothilone D or carboplatin alone or epothilone D and carboplatin in combination. Once the IC50 value of each drug was obtained, the combined drug treatment was designed at constant ratios of the two drugs and the treatment schedule varied: either epothilone D or carboplatin was administered first with the second drug added 24 hours later. Cell viability was assayed by the MTS assay. […] Cells were treated with epothilone D or carboplatin at varying concentrations, ranging from 1 pM to 10 μM, for 3 days. Cell viability was determined using the using the MTS assay (Promega). IC50 is defined as the concentration of drug required to inhibit cell growth by 50%.

[2] = system: human lung cancer xenograft MV522; assay: Human lung cancer xenograft in nude mice; type: in vivo; conditions: ip, epothilone D twice a day for 7 days (6 to 14 mg/kg/day), carboplatin daily for 5 days (10 to 40 mg/kg/day), dose dependent
Procedure: (§2) The drug combination was also tested in nude mice bearing the human lung cancer xenografts MV522 and SK-MES. Fragments of human tumor carcinomas harvested from subcutaneously growing tumors in nude mice hosts were implanted subcutaneously. When tumors were approximately 60-75 mg in size (10-14 days after implantation), mice were pair matched into treatment and control groups. Epothilone D was given intraperito-neally twice a day for 7 days (6 to 14 mg/kg/day), carboplatin intraperitoneally every daily for 5 days (10 to 40 mg/kg/day), various combinations of epothilone D (first) and carboplatin (second), or vehicle control.

[3] = system: human lung cancer xenograft SK-MES; assay: Human lung cancer xenograft in nude mice; type: in vivo; conditions: ip, epothilone D twice a day for 7 days (6 to 14 mg/kg/day), carboplatin daily for 5 days (10 to 40 mg/kg/day), dose dependent
Procedure: as §2

H460 = assay: MTS cell viability assay, single agents; type: cell-based; conditions: Homo sapiens, NCI-H460, 72 h, read-out: IC50 (concentration of drug required to inhibit cell growth by 50%)
Procedure: as §1

H23 = assay: MTS cell viability assay, single agents; type: cell-based; conditions: Homo sapiens, NCI-H23, 72 h, read-out: IC50 (concentration of drug required to inhibit cell growth by 50%)
Procedure: as §1

H522 = assay: MTS cell viability assay, single agents; type: cell-based; conditions: Homo sapiens, NCI-H522, 72 h, read-out: IC50 (concentration of drug required to inhibit cell growth by 50%)
Procedure: as §1

H226 = assay: MTS cell viability assay, single agents; type: cell-based; conditions: Homo sapiens, NCI-H226, 72 h, read-out: IC50 (concentration of drug required to inhibit cell growth by 50%)
Procedure: as §1

H358 = assay: MTS cell viability assay, single agents; type: cell-based; conditions: Homo sapiens, NCI-H358, 72 h, read-out: IC50 (concentration of drug required to inhibit cell growth by 50%)
Procedure: as §1

A549 = assay: MTS cell viability assay, single agents; type: cell-based; conditions: Homo sapiens, A549, 72 h, read-out: IC50 (concentration of drug required to inhibit cell growth by 50%)
Procedure: as §1

SMILES	cytotoxic effects against cultured NSCLC human cancer cell lines [1]	antiproliferative activity (measured as tumor size), single agent [2]	antiproliferative activity (measured as tumor size), single agent [3]	IC50 (H460)	IC50 (H23)	IC50 (H522)	IC50 (H226)	IC50 (H358)	IC50 (A549)
C/C1=C/CC(/C(C)=C/c2csc(C)n2)OC(=O)C[C@H](O)C(C)(C)C(=O)[C@H](C)[C@@H](O)[C@@H](C)CCC1 (stereo partly drawn) [Epothilone D, epothilone D]	potent cytotoxic effects	antiproliferative activity	antiproliferative activity	33 nM	37 nM	40 nM	50 nM	40 nM	40 nM
[NH2][Pt]1([NH2])[O]C(=O)C2(CCC2)C(=O)[O]1 [Carboplatin, carboplatin]	essentially inactive	antiproliferative activity	antiproliferative activity						
